# Assay results taken from patent publication US20180214391A1, “USE OF CURCUMIN AND PHARMACEUTICALLY ACCEPTABLE SALT THEREOF” (TARGETPHARMA LABORATORIES (JIANDSU) CO., LTD., priority 2015, published 2018).
# Experiments:
# Format in all cases: in vivo, C57BL/6 female mice
# [1] = system: liver enlargement and splenomegaly caused by T241-VEGF tumor; experiment: Liver and spleen coefficients of T241-VEGF tumor-bearing mice; details: vs tumor control group, p<0.05
# Experimental: We feed C57BL/6 female mice (SPF grade, 6-8 weeks old, manufactured by Shanghai Silaike Experimental Animal Co., Ltd.) for 2-3 days. The day before subcutaneous inoculation, body hair in back and neck was shaved with a shaving device for the preparation of subcutaneous inoculation of tumor cells. The tumor cells T241-VEGF were collected and washed twice with PBS. After resuspended with PBS and counted, the cells were diluted to 1×10^7 cells/ml with PBS and placed on ice ready for inoculation. Mice were anesthetized with 7% chloral hydrate, 0.1 ml/each, intraperitoneal injection. After the mice were completely anesthetized, the mice were subcutaneously inoculated with tumor cells T241-VEGF, 1×10^6/each, with 1 ml medical disposable syringes in the back and neck. Inoculated mice were randomly allocated (8 in each group), weighed, grouped and administered for treatment. In this experiment, curcumin (manufactured by Sigma, cat. no. C1386-10G) was dissolved to 1 mol/L with DMSO and diluted to 2.5 mM, 5 mM and 10 mM with 20% Tween-80 (mixed with PBS) before administration. Detailed information and administration plan is as follows: Control: 20% Tween-80, 0.1 ml/each; The low-dose of curcumin group (Curcumin-2.5 mM): 2.5 mM curcumin, 0.1 ml/each, continuous administration for 14 days; The medium-dose of curcumin group (Curcumin-5 mM): 5 mM curcumin, 0.1 ml/each, continuous administration for 14 days; The high-dose of curcumin group (Curcumin-10 mM): 10 mM Curcumin, 0.1 ml/each, continuous administration for 14 days; Positive control group (PC: anti-VEGF humanized monoclonal antibody, produced by Jiangsu Simcere Pharmaceutical Co., Ltd.): 2 mg/ml, 0.1 ml/each, twice a week, administration for 4 times. Mice were weighed up every other day. Measuring the tumor volume with vernier caliper every other day after tumor grew in the body. […]
# [2] = system: T241-VEGF tumors; experiment: Antitumor animal model, subcutaneous T241-VEGF tumor: tumor volume and tumor weight; details: for final tumor volume compared with the control group / tumor weight compared with the control group: 0.1 ml/each, 14 days; for tumor weight compared with the control group: FIG. 1-B
# Excerpt: At present, conventional antitumor drugs are accompanied with toxic side effects while taking effect. In this experiment, we evaluated the antitumor effect of curcumin, and examined the toxicity of the drug by observing changes in animals' body weights after treatment. Given that the chemotherapy drug treatment and course of chemotherapy are closely related to the incident rates of antitumor associated syndrome and its severity, positive control in this experiment used the most advanced antitumor antibodies in the world as a control. […]-VEGF is a tumor model with rapid tumor growth and obvious symptom of tumor associated syndrome. We feed C57BL/6 female mice (SPF grade, 6-8 weeks old, manufactured by Shanghai Silaike Experimental Animal Co., Ltd.) for 2-3 days. The day before subcutaneous inoculation, body hair in back and neck was shaved with a shaving device for the preparation of subcutaneous inoculation of tumor cells. The tumor cells […]-VEGF were collected and washed twice with PBS. After resuspended with PBS and counted, the cells were diluted to 1×10^7 cells/ml with PBS and placed on ice ready for inoculation. Mice were anesthetized with 7% chloral hydrate, 0.1 ml/each, intraperitoneal injection. After the mice were completely anesthetized, the mice were subcutaneously inoculated with tumor cells […]-VEGF, 1×10^6/each, with 1 ml medical disposable syringes in the back and neck. Inoculated mice were randomly allocated (8 in each group), weighed, grouped and administered for treatment. In this experiment, curcumin (manufactured by Sigma, cat. no. […]) was dissolved to 1 mol/L with DMSO and diluted to 2.5 mM, 5 mM and 10 mM with 20% Tween-80 (mixed with PBS) before administration. Detailed information and administration plan is as follows: Control: 20% Tween-80, 0.1 ml/each; The low-dose of curcumin group (Curcumin-2.5 mM): 2.5 mM curcumin, 0.1 ml/each, continuous administration for 14 days; The medium-dose of curcumin group (Curcumin-5 mM): 5 mM curcumin, 0.1 ml/each, continuous administration for 14 days; The high-dose of curcumin group (Curcumin-10 mM): 10 mM Curcumin, 0.1 ml/each, continuous administration for 14 days; Positive control group (PC: anti-VEGF humanized monoclonal antibody, produced by Jiangsu […] Pharmaceutical Co., Ltd.): 2 mg/ml, 0.1 ml/each, twice a week, administration for 4 times. Mice were weighed up every other day. Measuring the tumor volume with vernier caliper every other day after tumor grew in the body. In order to further verify the antitumor effect of each dose of curcumin and its effect on liver and spleen, we handled and dissected the animals in each group the day after administration, got tumors, livers, spleens and kidneys, then weighed up all the tissues and stored them respectively.
# [3] = Body weight changes of T241-VEGF tumor-bearing mice after treatment (toxicity); details: low, medium and high dose of curcumin (2.5, 5, 10 mM, 0.1 ml/each, 14 days); consistent with normally fed animals
# Excerpt: At present, conventional antitumor drugs are accompanied with toxic side effects while taking effect. In this experiment, we evaluated the antitumor effect of curcumin, and examined the toxicity of the drug by observing changes in animals' body weights after treatment. Given that the chemotherapy drug treatment and course of chemotherapy are closely related to the incident rates of antitumor associated syndrome and its severity, positive control in this experiment used the most advanced antitumor antibodies in the world as a control. T241-VEGF is a tumor model with rapid tumor growth and obvious symptom of tumor associated syndrome.
# We feed C57BL/6 female mice (SPF grade, 6-8 weeks old, manufactured by Shanghai Silaike Experimental Animal Co., Ltd.) for 2-3 days. The day before subcutaneous inoculation, body hair in back and neck was shaved with a shaving device for the preparation of subcutaneous inoculation of tumor cells. The tumor cells T241-VEGF were collected and washed twice with PBS. After resuspended with PBS and counted, the cells were diluted to 1×10^7 cells/ml with PBS and placed on ice ready for inoculation. Mice were anesthetized with 7% chloral hydrate, 0.1 ml/each, intraperitoneal injection. […]
# [4] = system: anemia symptoms induced by the T241-VEGF tumor animal model; experiment: Blood analysis of anemia symptoms (RBC, HGB, HCT, PLT) in T241-VEGF tumor-bearing mice
# Experimental: We feed C57BL/6 female mice (SPF grade, 6-8 weeks old, manufactured by Shanghai Silaike Experimental Animal Co., Ltd.) for 2-3 days. The day before subcutaneous inoculation, body hair in back and neck was shaved with a shaving device for the preparation of subcutaneous inoculation of tumor cells. The tumor cells T241-VEGF were collected and washed twice with PBS. After resuspended with PBS and counted, the cells were diluted to 1×10^7 cells/ml with PBS and placed on ice ready for inoculation. Mice were anesthetized with 7% chloral hydrate, 0.1 ml/each, intraperitoneal injection. After the mice were completely anesthetized, the mice were subcutaneously inoculated with tumor cells T241-VEGF, 1×10^6/each, with 1 ml medical disposable syringes in the back and neck. Inoculated mice were randomly allocated (8 in each group), weighed, grouped and administered for treatment. In this experiment, curcumin (manufactured by Sigma, cat. no. C1386-10G) was dissolved to 1 mol/L with DMSO and diluted to 2.5 mM, 5 mM and 10 mM with 20% Tween-80 (mixed with PBS) before administration. Detailed information and administration plan is as follows: Control: 20% Tween-80, 0.1 ml/each; The low-dose of curcumin group (Curcumin-2.5 mM): 2.5 mM curcumin, 0.1 ml/each, continuous administration for 14 days; The medium-dose of curcumin group (Curcumin-5 mM): 5 mM curcumin, 0.1 ml/each, continuous administration for 14 days; The high-dose of curcumin group (Curcumin-10 mM): 10 mM Curcumin, 0.1 ml/each, continuous administration for 14 days; Positive control group (PC: anti-VEGF humanized monoclonal antibody, produced by Jiangsu Simcere Pharmaceutical Co., Ltd.): 2 mg/ml, 0.1 ml/each, twice a week, administration for 4 times. Mice were weighed up every other day. Measuring the tumor volume with vernier caliper every other day after tumor grew in the body.
# Handled the animals in each group the day after administration, weighed up, then collected blood (stored in 1.5 ml of EP tubes with 20 ul of 0.5M EDTA) after enucleation of the eyeballs and performed blood analysis. Blood samples were taken to evaluate the effect of curcumin on tumor associated syndrome—red blood cell (RBC), hemoglobin (HGB), hematocrit (HCT) and platelet count (PLT) in mice.
# [5] = curcumin low, medium and high dose, positive control 2 mg/ml
smiles,measurement,setting,value
COc1cc(/C=C/C(=O)CC(=O)/C=C/c2ccc(O)c(OC)c2)ccc1O [curcumin],liver enlargement (liver coefficient),[1]; 5 mM curcumin,significantly improve the liver enlargement
same,liver enlargement (liver coefficient),[1]; 10 mM curcumin,significantly improve the liver enlargement
same,spleen enlargement (spleen coefficient),[1]; 10 mM curcumin,significantly improve the spleen enlargement
same,final tumor volume compared with the control group,[2]; 2.5 mM curcumin,inhibited to a certain extent
same,tumor weight compared with the control group,[2]; 5 mM curcumin,significantly different
same,final tumor volume compared with the control group,"[2]; 5 mM curcumin, p<0.01 or p<0.001",significantly different
same,tumor weight compared with the control group,[2]; 10 mM curcumin,significantly different
same,final tumor volume compared with the control group,"[2]; 10 mM curcumin, p<0.01 or p<0.001",significantly different
same,growth of T241-VEGF tumors,"[2]; low, medium and high dose of curcumin (2.5, 5, 10 mM, 0.1 ml/each, 14 days), FIG. 1-A",can inhibit the growth
same,body weight,[3],not reduced
same,platelet (PLT) compared with normal mice,[4]; curcumin at a dose of 10 mM,no statistical differences
same,anemia symptoms of tumor-bearing mice compared with control group,"[4]; curcumin low, medium and high dose (2.5, 5, 10 mM), positive control 2 mg/ml, FIG. 3",improved remarkably
same,hematocrit (HCT) compared with normal mice,[4]; [5],no statistical differences
same,hemoglobin (HGB) compared with normal mice,[4]; [5],no statistical differences
same,red blood cell (RBC) compared with normal mice,[4]; [5],no statistical differences
